Measurements published in patent US20130273027A1, “MUTANT PROTEASES AND METHODS OF USE THEREOF” (Progenra, Inc., priority 2012, published 2013).

Experiments:
USP14 mutant BL1-USP21 = biological target: T1, USP14 mutant BL1-USP21 (Homo sapiens, UniProt P54578, DEL335-341/INS333SRGSI); assay: Screening assay with USP14 mutant BL1-USP21, ubiquitin-rhodamine 110 cleavage; format: biochemical; conditions: 63.75 nM mutant USP14 preincubated 30 minutes; Ub-Rh110; normalized to DMSO (0%) and 10 mM NEM (100%); FIG. 7
T1 construct: a full-length cDNA clone encoding full-length USP14 isoform a; made in house; host or cells: E. coli Rosetta 2 (DE3) pLysS
T1 sequence (P54578 with tags, fused parts or gaps INS333SRGSI/DEL335-341): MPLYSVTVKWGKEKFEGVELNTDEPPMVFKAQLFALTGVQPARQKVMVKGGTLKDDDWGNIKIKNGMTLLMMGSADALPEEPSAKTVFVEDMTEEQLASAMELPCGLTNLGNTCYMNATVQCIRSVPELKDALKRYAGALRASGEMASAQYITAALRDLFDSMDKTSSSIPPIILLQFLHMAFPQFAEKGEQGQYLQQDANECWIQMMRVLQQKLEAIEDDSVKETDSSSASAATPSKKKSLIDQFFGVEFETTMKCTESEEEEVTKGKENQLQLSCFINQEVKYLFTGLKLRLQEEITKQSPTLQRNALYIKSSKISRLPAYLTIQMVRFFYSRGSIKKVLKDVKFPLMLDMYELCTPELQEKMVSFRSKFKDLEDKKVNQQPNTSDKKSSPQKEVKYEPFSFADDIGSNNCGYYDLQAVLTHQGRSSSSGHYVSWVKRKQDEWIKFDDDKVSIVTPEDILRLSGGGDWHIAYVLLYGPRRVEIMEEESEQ
Description: Test compounds were diluted in DMSO to the appropriate concentration before dispensing 2 μl of each compound into a black walled 96 well plate. The compounds were preincubated with 80 μl of reaction buffer containing 63.75 nM mutant USP14 for 30 minutes before adding 20 μl of 510 nM ubiquitin-rhodamine 110 in reaction buffer. The plates were incubated at room temperature before reading on a fluorimeter equipped with excitation and emission filters of […] respectively and a 510 nm dichroic mirror within the linear range of the assay. […] FIG. 7 provides a graph of the results.

USP14 mutant BL2-DNHG = biological target: T2, USP14 mutant BL2-DNHG (Homo sapiens, UniProt P54578, DEL429-429/S430D/S431N/S432H/S433G); assay: Screening assay with USP14 mutant BL2-DNHG, ubiquitin-rhodamine 110 cleavage; format: biochemical; conditions: 1.275 μM mutant USP14 preincubated 30 minutes; Ub-Rh110; normalized to DMSO (0%) and 10 mM NEM (100%); FIG. 8
T2 construct: a full-length cDNA clone encoding full-length USP14 isoform a; 6xHis (N); yeast SUMO (S. cerevisiae Smt3) (N); made in house; host or cells: E. coli (Rosetta 2 (DE3) pLysS stated for the pE-SUMOpro-USP14 construct)
T2 sequence (P54578 with tags, fused parts or gaps DEL429-429/S430D/S431N/S432H/S433G): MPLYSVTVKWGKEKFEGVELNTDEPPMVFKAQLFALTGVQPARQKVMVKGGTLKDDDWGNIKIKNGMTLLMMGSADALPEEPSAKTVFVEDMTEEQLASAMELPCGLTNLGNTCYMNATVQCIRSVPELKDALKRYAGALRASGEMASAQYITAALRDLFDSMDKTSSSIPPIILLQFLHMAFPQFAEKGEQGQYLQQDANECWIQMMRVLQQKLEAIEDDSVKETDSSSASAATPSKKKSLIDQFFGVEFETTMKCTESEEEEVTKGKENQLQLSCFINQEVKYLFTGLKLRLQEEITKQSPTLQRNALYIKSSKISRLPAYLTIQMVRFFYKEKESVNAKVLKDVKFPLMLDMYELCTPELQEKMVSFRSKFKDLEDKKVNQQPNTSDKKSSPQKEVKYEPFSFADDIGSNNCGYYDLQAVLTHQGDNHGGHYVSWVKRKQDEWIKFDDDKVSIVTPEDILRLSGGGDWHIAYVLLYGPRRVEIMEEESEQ
Description: Another screening assay was performed with the USP14 mutant BL2-DNHG. Test compounds were diluted in DMSO to the appropriate concentration before dispensing 2 μl of each compound into a black walled 96 well plate. The compounds were preincubated with 80 μl of reaction buffer containing 1.275 μM mutant USP14 for 30 minutes before adding 20 μl of 510 nM ubiquitin-rhodamine 110 in reaction buffer. The plates were incubated at room temperature before reading on a fluorimeter equipped with excitation and emission filters of 485 and 528 nm respectively and a 510 nm dichroic mirror within the linear range of the assay.

Compound | inhibition of USP14 mutant (BL1-USP21) (USP14 mutant BL1-USP21) | inhibition of USP14 mutant (BL2-DNHG) (USP14 mutant BL2-DNHG)
CC(=O)c1cc([N+](=O)[O-])c(Sc2ccc(F)cc2F)s1 [P22077] | do not inhibit | do not inhibit
N#CSc1cc(SC#N)c(N)nc1N [PR-619] | inhibit | inhibit
